For experiment [1], the system named is osteoblasts (OB2). Briefly: Osteoblast (OB2) proliferation, MTT method. The format is cell-based, SD rat. The settings on record: for A570 (X ± SD): 72 hours, MTT, n = 4. The method, then: (§1) 1) Sampling: after a newborn (within 24 hours) SD rat was disinfected, the calvaria were excised under sterilization conditions. The calvaria were predigested by 0.25% trypsin for 10-15 minutes firstly, then oscillated and digested by 0.1% collagenase II at 37° C. for 60 minutes. The cells were collected by centrifugation at 1000 rpm.
(§2) 2) Cell culture: The isolated cells were inoculated into culture flask at a concentration of 1×10^4/cm^2, wherein the culture solution is 10% of NCS-MEM. The cells were cultured in an incubator with 5% CO2 at 37° C., then passaged until half confluence. The second generation of secondary cells (OB2) were tested for pharmacodynamics.
(§3) 3) Medicines: Each test medicine was formulated at a concentration of 0.1 mol/L, and sterilized by high pressure for later use.
(§4) 2.24 g of calcium gluconate was dissolved in 50 ml of deionized water at room temperature. The control group was deionized water.
OB2 were inoculated into 24 well COSTOR culture plate at a density of 6×10^3 per well. 24 hours later, the above culture solution was replaced by culture solution containing varying concentrations of medicines ranging from 10^−9 to 10^−3 mol/L. 72 hours after adding medicines, the cells were tested through Labsystems Multiskan MS (Finland) )ELISA analyzer by MTT method. OD value at 570 nm was used to reflect cell proliferation.
(In general: Formazan colour is commonly taken as a measure of viable cells.)

The subject of experiment [2] is ALP activity of osteoblast (OB2). The experiment can be described thus: ALP activity of OB2 cell lysates, para-nitrobenzene phosphate method. To be noted: 10^−3 mol/L; for ALP activity of osteoblast: n = 4. The experiment is classed as cell-based, SD rat. As to the method:
as §1, §2, §3, §4
OB2 was inoculated into 24 well COSTOR culture plate at a density of 2×10^4 per well. 24 hours later, the above culture solution was replaced by medium containing medicines. Then the culture solution was changed every 48 hours until confluence of cells was reached. ALP activity of cell lysates was measured by para-nitrobenzene phosphate method. Content of protein in cell lysates was measured by Coomassie brilliant blue method.

The test system of experiment [3] is osteoblasts (OB2). The experiment can be described thus: Mineralization function of OB2, alizarin red nodule count. The experiment is classed as cell-based, SD rat. To be noted: for Number of mineralization nodules: 14 days, alizarin red, n = 4. The method, then:
as §1, §2, §3, §4
OB2 was inoculated into 6 well COSTOR culture plate at a density of 5×10^4 per well. 24 hours later, the above culture solution was replaced by culture solution containing medicines. Then the solution was changed every 48 hours. 14 days later, the cells were fixed and stained with alizarin red.

The test system of experiment [4] is α-COLI mRNA in osteoblast (OB2). The experiment can be described thus: mRNA expression of α-COLI in osteoblasts by quantitative RT-PCR. The experiment is classed as cell-based, SD rat. To be noted: 10^−3 mol/L; for level of α-COLI mRNA compared with control group: quantitative RT-PCR, in words. The method, then:
1. Cell Culture: The culture method of primary osteoblast was the same as that of the previous test. OB2 was inoculated at density of 1×10^4 cells/cm^2. […] Culture medium was changed every 48 hours and the medicines were added. Total RNA of the cells was extracted one week later.
2. Extraction of RNA: The cells were digested with 0.25% trypsin, and were centrifuged at 1000 rpm for 5 min to collect cell pellets. Total RNA was extracted with TRIzol reagent (Gibco Co.) method.
3. Reverse transcriptase polymerase chain reaction (RT-PCR): Access RT-PCR System kit (Promega) was used in the test, following the directions of the kit. The RT-PCR of the reaction mixture was performed in PCR analyzer (Bio-Rad Inc.) at 48° C. for 45 min. Inactivate enzyme at 94° C. for 2 min, then 30 cycles of PCR reaction: […] at 94° C. for degeneration, 1 min at 54° C. for annealing, 2 min at 72° C. for extension, and after the last cycle, 7 min at 72° C. for another extension. 9 μl PCR products were analyzed in 1.5% agarose gel electrophoresis. Then the bands were analyzed by image analysis system (Image Master VDS). Optical density value was calibrated by internal reference-Actin, and the calibration values were analyzed statistically.
4. Medicines: Each test medicine was formulated at the concentration of 0.1 mol/L, and sterilized by high pressure for later use. […] Calcium gluconate, Shanghai Huanghai Pharmaceutical Factory, 2.24 g was dissolved in 50 ml deionized water.

A further experiment deals with emasculated rat. To be noted: in words.

Marks after values point to notes of the source that are not given here.

For `[Ca+2].[Cl-].[Cl-]` [Calcium chloride], the “A570 (X ± SD)” value in the experiment on osteoblasts (OB2) [1] (test I, 10^−3 mol/L) was 0.325 ± 0.052; with osteoblasts (OB2) [1] (test I, 10^−5 mol/L), 0.277 ± 0.037; with osteoblasts (OB2) [1] (test I, 10^−7 mol/L), 0.239 ± 0.005^&; in the experiment with osteoblasts (OB2) [1] (test I, 10^−9 mol/L), 0.237 ± 0.005^&; in the experiment with osteoblasts (OB2) [1] (test II, 10^−3 mol/L) it was 0.423 ± 0.028***^&; in the experiment with osteoblasts (OB2) [1] (test II, 10^−5 mol/L) it was 0.324 ± 0.047^&. Further, the “A570 (X ± SD)” value in the experiment on osteoblasts (OB2) [1] (test II, 10^−7 mol/L) was 0.268 ± 0.022^&; in the experiment with osteoblasts (OB2) [1] (test II, 10^−9 mol/L), 0.292 ± 0.023; with osteoblasts (OB2) [1] (test III, 10^−3 mol/L), 0.281 ± 0.014; in the experiment with osteoblasts (OB2) [1] (test III, 10^−5 mol/L), 0.268 ± 0.025^&; with osteoblasts (OB2) [1] (test III, 10^−7 mol/L), 0.229 ± 0.09; with osteoblasts (OB2) [1] (test III, 10^−9 mol/L), 0.267 ± 0.016. In addition, the “ALP activity of osteoblast” value in experiment [2] (Experiment 1) is listed as 0.119 ± 0.039 U/mg of protein; in experiment [2] (Experiment 2), 0.122 ± 0.08 U/mg of protein; in experiment [2] (Experiment 3), 0.102 ± 0.008 U/mg of protein. Also, in the experiment with osteoblasts (OB2) [3], the “Number of mineralization nodules” value is 6.4 ± 1.673^&.

Calcium gluconate: the “A570 (X ± SD)” value in the experiment on osteoblasts (OB2) [1] (test I, 10^−3 mol/L) is 0.381 ± 0.052; in the experiment on osteoblasts (OB2) [1] (test I, 10^−5 mol/L) it was 0.351 ± 0.039; in the experiment with osteoblasts (OB2) [1] (test I, 10^−7 mol/L) it was 0.267 ± 0.009*^&; in the experiment on osteoblasts (OB2) [1] (test I, 10^−9 mol/L), 0.265 ± 0.025; with osteoblasts (OB2) [1] (test II, 10^−3 mol/L), 0.359 ± 0.072**^&; in the experiment with osteoblasts (OB2) [1] (test II, 10^−5 mol/L), 0.301 ± 0.051. Also, the “A570 (X ± SD)” value is given as 0.268 ± 0.019*^& with osteoblasts (OB2) [1] (test II, 10^−7 mol/L); 0.248 ± 0.017^& in the experiment with osteoblasts (OB2) [1] (test II, 10^−9 mol/L); 0.229 ± 0.021 in the experiment on osteoblasts (OB2) [1] (test III, 10^−3 mol/L); 0.242 ± 0.012 in the experiment on osteoblasts (OB2) [1] (test III, 10^−5 mol/L); 0.233 ± 0.021^$ in the experiment with osteoblasts (OB2) [1] (test III, 10^−7 mol/L); 0.229 ± 0.017 with osteoblasts (OB2) [1] (test III, 10^−9 mol/L). Moreover, the results for the “ALP activity of osteoblast” value in experiment [2] (Experiment 1), in experiment [2] (Experiment 2) and in experiment [2] (Experiment 3) were 0.115 ± 0.009 U/mg of protein, 0.140 ± 0.016 U/mg of protein and 0.107 ± 0.025 U/mg of protein, respectively. The “Number of mineralization nodules” value with osteoblasts (OB2) [3] is 6.2 ± 2.588^&. Further, the “Relative expression amount of α-COLI” value in experiment [4] (one week, calibrated by β-Actin, X ± SD, n = 3) worked out at 1.2524 ± 0.377. The “level of α-COLI mRNA compared with control group” value in experiment [4] was “no significant difference”.

On to calcium L-threonate, for which the “effect on proliferation of osteoblast” value in the experiment on osteoblasts (OB2) [1] (10^−9-10^−3 mol/L, in words) was “promoting proliferation of osteoblast”. For the same compound, the “A570 (X ± SD)” value is 0.458 ± 0.019 with osteoblasts (OB2) [1] (test I, 10^−3 mol/L); 0.405 ± 0.085 with osteoblasts (OB2) [1] (test I, 10^−5 mol/L); 0.401 ± 0.082 with osteoblasts (OB2) [1] (test I, 10^−7 mol/L); 0.387 ± 0.087 in the experiment with osteoblasts (OB2) [1] (test I, 10^−9 mol/L); 0.486 ± 0.010 in the experiment with osteoblasts (OB2) [1] (test II, 10^−3 mol/L); 0.449 ± 0.041 in the experiment with osteoblasts (OB2) [1] (test II, 10^−5 mol/L). Also, the “A570 (X ± SD)” value stood at 0.371 ± 0.047 in the experiment on osteoblasts (OB2) [1] (test II, 10^−7 mol/L); 0.418 ± 0.047 with osteoblasts (OB2) [1] (test II, 10^−9 mol/L); 0.386 ± 0.024 with osteoblasts (OB2) [1] (test III, 10^−3 mol/L); 0.327 ± 0.034 in the experiment on osteoblasts (OB2) [1] (test III, 10^−5 mol/L); 0.338 ± 0.048 in the experiment with osteoblasts (OB2) [1] (test III, 10^−7 mol/L); 0.316 ± 0.073 with osteoblasts (OB2) [1] (test III, 10^−9 mol/L). The “ALP activity of OB2 versus control group” value in experiment [2] (in words) is “higher than that of control group”. Moreover, the “ALP activity of osteoblast” value in experiment [2] (Experiment 1) is 0.156 ± 0.002 U/mg of protein; in experiment [2] (Experiment 2), 0.208 ± 0.003 U/mg of protein; in experiment [2] (Experiment 3), 0.164 ± 0.026 U/mg of protein. Further, the “Number of mineralization nodules” value with osteoblasts (OB2) [3] came out at 12.0 ± 3.742. Moreover, in the experiment on osteoblasts (OB2) [3] (within two weeks, in words), the “number of mineralization nodules versus other groups” value is given as “the largest”. Also, in experiment [4], the “level of α-COLI mRNA compared with control group” value is listed as “increased significantly”. The biomechanical parameters result in the experiment with emasculated rat is “significantly increase”. Further, the bone density entry in the experiment on emasculated rat is “significantly increase”. For the same compound, the “content of bone calcium” value in the experiment with emasculated rat was “significantly increase”.

These data come from US6727288B2, “Method for treating bone fracture” (Juneng Industry Co., Ltd., priority 2001, dated 2004).
